What was measured:
[1] = system: las quorum-sensing system; test: PA01 lasB-gfp cell-based fluorescence reporter assay; parameters: species or system Pseudomonas aeruginosa; details: various micromolar concentrations
From the text: The inhibition of quorum sensing has been observed by the inventors during a chemical screen set up to look for small-molecule inhibitors of quorum sensing in P. aeruginosa. The assay used is a cell-based fluorescence assay (PA01 lasB-gfp) in which the expression of GFP is controlled by a las-regulated promoter. Inhibition of induction of the las quorum-sensing system by a small molecule is marked by the reduction in GFP signal relative to an untreated sample.

[2] = system: rhl quorum-sensing system; test: PA01 rhlA-gfp reporter assay; format: cell-based, Pseudomonas aeruginosa; details: various micromolar concentrations
[3] = system: pqs quorum-sensing system; test: PA01 pqsA-gfp reporter assay; format: cell-based, Pseudomonas aeruginosa; details: various micromolar concentrations
[4] = system: P. aeruginosa; test: Growth of P. aeruginosa; format: cell-based, Pseudomonas aeruginosa; details: low micromolar concentrations
[5] = system: P. aeruginosa proteome; test: Proteomic analysis of auranofin-treated cultures; format: cell-based, Pseudomonas aeruginosa; details: proteome in presence or absence of auranofin
[6] = system: lasA, rhlA, pqsA, exsC, pscL, pilM and pilY genes; test: Quantitative RT-PCR of RNA levels; format: cell-based, Pseudomonas aeruginosa
[7] = system: elastase (LasB); test: Elastase activity in culture supernatants (commercial elastase activity kit); format: cell-based, Pseudomonas aeruginosa; details: culture supernatants after 7 hours of treatment, various micromolar concentrations
Description: LasB levels were measured using a commercial elastase activity kit.

[8] = system: rhamnolipids; test: Rhamnolipid levels in culture supernatants (MRM mass spectrometry); format: cell-based, Pseudomonas aeruginosa; details: culture supernatants after 7 hours of treatment, various micromolar concentrations
Description: Rhamnolipid levels were determined using multiple reaction monitoring (MRM) mass spectrometry.

[9] = system: pyocyanin; test: Pyocyanin levels in culture supernatants (absorbance at 691 nm); format: cell-based, Pseudomonas aeruginosa; details: culture supernatants after 7 hours of treatment, various micromolar concentrations
Description: Pyocyanin levels were determined via absorbance at 691 nm.

[10] = system: P. aeruginosa (PA01); test: Swarming motility assay; format: cell-based, Pseudomonas aeruginosa; details: 10 μM
From the text: (§1) The top-left and bottom-left petri dishes contain P. aeruginosa (PA01) and PA01-lasIrhlI, respectively, serving as the controls.

[11] = system: P. aeruginosa (PA01); test: Twitching motility assay; format: cell-based, Pseudomonas aeruginosa; details: 10 μM
From the text: as §1

[12] = system: P. aeruginosa (PA01); test: Swimming motility assay; format: cell-based, Pseudomonas aeruginosa; details: 10 μM
[13] = biological target: wild-type Vfr binding to the promoter of lasR (plasR) (Pseudomonas aeruginosa, UniProt P55222); test: Electrophoretic mobility shift assay (EMSA), wild-type Vfr; details: increasing concentrations
Sequence of wild-type Vfr binding to the promoter of lasR (plasR) (P55222 whole entry, the tested form may be a part): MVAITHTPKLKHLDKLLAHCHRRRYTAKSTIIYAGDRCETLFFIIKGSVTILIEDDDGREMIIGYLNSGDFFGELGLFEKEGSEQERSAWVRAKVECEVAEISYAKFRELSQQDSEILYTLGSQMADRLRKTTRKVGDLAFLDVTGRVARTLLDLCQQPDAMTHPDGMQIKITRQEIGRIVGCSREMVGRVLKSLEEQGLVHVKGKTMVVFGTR
From the text: (§2) It depicts auranofin inhibiting the binding of wild-type Vfr, but not of the mutant pentaCys variant, to a DNA fragment containing the lasR promoter sequence (plasR) in a dose dependent manner.
(§3) It was hypothesized that auranofin inhibits Vfr, a global response regulator dependent on cyclic-AMP, which is known to control Type III secretion, Type IV pilus assembly and the quorum sensing networks (las and rhl). This was validated using electrophoretic mobility shift assays (EMSA) (see FIG. 6). Based on the EMSA, it can be seen that the binding of wild-type Vfr to the promoter of lasR (plasR), was inhibited by treatment with auranofin. In contrast, the binding of mutant Vfr proteins (C38S/C97S or C38S/C183S) to the same DNA fragment was not inhibited by auranofin.

[14] = system: mutant Vfr proteins (C38S/C97S or C38S/C183S) binding to plasR; test: Electrophoretic mobility shift assay (EMSA), mutant Vfr; parameters: species or system Pseudomonas aeruginosa; details: increasing concentrations
From the text: as §2, §3

[15] = system: Δvfr strain expressing pentaCys Vfr; test: Twitching motility in Δvfr strain complemented with pentaCys Vfr; format: cell-based, Pseudomonas aeruginosa
[16] = system: Δvfr strain expressing pentaCys Vfr; test: Quorum sensing (LasB production) in Δvfr strain complemented with pentaCys Vfr; format: cell-based, Pseudomonas aeruginosa
[17] = system: P. aeruginosa biofilms; test: Biofilm treatment (GFP-expressing cells, propidium iodide staining, imaging); format: cell-based, Pseudomonas aeruginosa
Description: FIG. 8 depicts the effects of auranofin, and its combination either with colistin or tobramycin, on the morphology of biofilms formed using P. aeruginosa cells expressing green fluorescent protein (GFP). DNA from dead cells were labeled with propidium iodide. Auranofin was added either prior to (lower panels) or after formation of the biofilm (24 h before imaging, middle panels). Colistin and tobramycin were added after formation of the biofilm (24 h before imaging, middle panels). […] Scale bar: 5 μm.
Quorum sensing inhibitors are known to affect biofilm morphology and structure. Since auranofin inhibits Vfr, which in turn affects quorum sensing, the effects of auranofin treatment on P. aeruginosa biofilms were investigated.

| Molecule | induction of las (PA01 lasB-gfp) quorum-sensing network, RFU/OD against time [1] | induction of rhl (PA01 rhlA-gfp) quorum-sensing network, RFU/OD against time [2] | induction of pqs (PA01 pqsA-gfp) quorum-sensing network, RFU/OD against time [3] | effect on growth of P. aeruginosa [4] | cellular levels of proteins controlled by quorum sensing [5] | levels of proteins involved in Type III secretion and formation of the Type IV pilus [5] | RNA levels of quorum-sensing regulated, Type III secretion and Type IV pilus assembly genes [6] | level of virulence factor LasB (elastase activity) [7] | level of virulence factor rhamnolipids [8] | level of virulence factor pyocyanin [9] | swarming motility [10] | twitching motility [11] | swimming motility [12] | binding of wild-type Vfr to the promoter of lasR (plasR) [13] | binding of mutant Vfr proteins to the same DNA fragment (plasR) [14] | twitching in the strain expressing the pentaCys Vfr [15] | QS (LasB production) in the strain expressing the pentaCys Vfr [16] | biofilm morphology disruption and killing, together with colistin ([17]; auranofin together with colistin) | biofilm morphology disruption and killing, together with tobramycin ([17]; auranofin together with tobramycin) | effect on biofilm morphology and cell death ([17]; auranofin treatment prior to biofilm formation) |
| --- | --- | --- | --- | --- | --- | --- | --- | --- | --- | --- | --- | --- | --- | --- | --- | --- | --- | --- | --- | --- |
| CC(=O)OC[C@H]1O[C@@H]([S-])[C@H](OC(C)=O)[C@@H](OC(C)=O)[C@@H]1OC(C)=O.CCP(CC)CC.[Au+] [auranofin] | completely inhibiting | completely inhibiting | completely inhibiting | not affecting growth | down-regulated | down-regulation | generally down-regulated | reduced | reduced | reduced | inhibit | inhibit | does not inhibit | inhibited | not inhibited | still able to inhibit | still able to inhibit | synergistic effects | synergistic effects | substantial cell death and the loss of the characteristic morphology of normal biofilms |
| OC[C@H]1O[C@H]([S-])[C@H](O)[C@@H](O)[C@@H]1O.[Au+] [aurothioglucose] | completely inhibiting |  |  |  |  |  |  |  |  |  |  |  |  |  |  |  |  |  |  |  |
| sodium aurothiomalate | completely inhibiting |  |  |  |  |  |  |  |  |  |  |  |  |  |  |  |  |  |  |  |

Source: US10258640B2, “Method of inhibiting quorum sensing in Pseudomonas aeruginosa” (priority 2015, dated 2019)
